Earlier results on one substance are cited in patent publication US7922709B2, “Enhanced delivery of naked DNA to skin by non-invasive in vivo electroporation” (priority 1998, dated 2011).

For bleomycin, the “log P (partition coefficient between octanol and water)” value is listed as “very negative”.
